This note sets out measurements from patent US20130210625A1, “SPIROHETEROCYCLIC PYRROLIDINE DERIVATIVES BASED PESTICIDES” (SYNGENTA CROP PROTECTION LLC, priority 2010, published 2013).

SMILES strings stand for the structures.

For data set [1], the system named is Tetranychus urticae (Two-Spotted Spider Mite). Kind of data set: Activity against Tetranychus urticae, mixed population, feeding/residual contact activity, preventive (Example B4). To be noted: foliar, 192 h, bean leaf discs sprayed, egg, larval and adult mortality 8 days later. Type of data set: in vivo. The text has this: Activity Against Tetranychus urticae (Two-Spotted Spider Mite) (Mixed Population, Feeding/Residual Contact Activity, Preventive)
Bean leaf discs on agar in 24-well microtiter plates are sprayed with test solutions. After drying, the leaf discs are infested with mite populations of mixed ages. 8 days later, discs are checked for egg mortality, larval mortality, and adult mortality.

Data set [2] has as its system Myzus persicae (Green Peach Aphid). The experiment in a line: Activity against Myzus persicae, mixed population, feeding/residual contact activity, preventive (Example B1). Type of data set: in vivo. More on the design: concentration or dose not given beside the values. To be noted: foliar, 144 h, sunflower leaf discs sprayed, mortality checked after 6 days. The protocol: Activity Against Myzus persicae (Green Peach Aphid) (Mixed Population, Feeding/Residual Contact Activity, Preventive)
Sunflower leaf discs are placed on agar in a 24-well microtiter plate and sprayed with test solutions. After drying, the leaf discs are infested with an aphid population of mixed ages. After an incubation period of 6 days, samples are checked for mortality and special effects (e.g. phytotoxicity).

Data set [3] has the same test system. Kind of data set: Activity against Myzus persicae, mixed population, systemic/feeding activity, curative (Example B2). Type of data set: in vivo. As to conditions: 144 h, roots of infested pea seedlings in test solution, mortality 6 days after introduction. The text has this: Activity Against Myzus persicae (Green Peach Aphid) (Mixed Population, Systemic/Feeding Activity, Curative)
Roots of pea seedlings, infested with an aphid population of mixed ages, are placed directly in the test solutions. 6 days after introduction, samples are checked for mortality and special effects on the plant.

Data set [4] has the same test system. The experiment in a line: Activity against Myzus persicae on cabbage plants, feeding/residual contact activity (Example B5). It counts as in vivo. As to conditions: 144 h, infested cabbage plants, spray chamber, mortality 6 days after treatment. How it is done: Activity Against Myzus persicae (Green Peach Aphid) (Mixed Population, Feeding/Residual Contact Activity, Plant Damage Evaluation)
Cabbage plants infested with a mixed population of Myzus persicae are treated with diluted test solutions of the compounds in a spray chamber. 6 days after treatment, samples are checked for mortality and for plant damage (phytotoxicity), visual assessment being made using a 0-100% rating scale (100%=total damage to plant; 0%=no damage to plant).

Data set [5] concerns Aphis craccivora (Cowpea Aphid). The experiment in a line: Activity against Aphis craccivora, mixed population, contact/feeding (Example B9). Type of data set: in vivo. To be noted: 200 ppm; infested pea seedlings, spray chamber; mortality 6 days after treatment. How it is done: Activity Against Aphis craccivora (Cowpea Aphid) (Mixed Population, Contact/Feeding)
Pea seedlings, infested with an aphid population of mixed ages, are treated (2 replicates) with diluted test solutions in a spray chamber. 6 days after treatment, samples are checked for mortality.

Regarding `CCOC(=O)OC1=C(c2cc(C(C)=O)ccc2C)C(=O)NC12CCN(OC)CC2` [Compound P1.2], the melting point lay within 185 to 187 °C.
On to `C=Cc1cc(C)cc(C)c1C1=C(OC(=O)OCC)C2(CCN(OC)CC2)NC1=O` [Compound P1.3], for which the pest or weed control at 400 ppm in data set [1] and in data set [3] was over 80% each time. The compound also had a pest or weed control in data set [2] of over 80%. Besides, the pest or weed control at 200 ppm in data set [4] was at least 80%.
For `C=Cc1cc(C)cc(C)c1C1=C(OC(=O)OCC)C2(CCN(OC)CC2)N(C)C1=O` [Compound P1.4], in data set [1], the pest or weed control at 400 ppm was over 80%. The compound further had a pest or weed control in data set [2] of over 80%. For the same compound, the pest or weed control at 200 ppm in data set [4] is at least 80%.
Consider `C=Cc1cc(C)cc(C)c1C1=C(OC(=O)OCC)C2(CCN(OC)CC2)N(OC2CCCO2)C1=O` (stereo not shown) [Compound P1.5, Carbonic acid 3-(2,4-dimethyl-6-vinyl-phenyl)-8-methoxy-2-oxo-1-(tetrahydro-furan-2-yloxy)-1,8-diaza-spiro[4.5]dec-3-en-4-yl ester ethyl ester], for which the pest or weed control at 400 ppm in data set [1] is over 80%. This compound also returned a pest or weed control in data set [2] of over 80%. Besides, in data set [4], the pest or weed control at 200 ppm was at least 80%.
With `C=Cc1cc(C)c(C2=C(OC(=O)OCC)C3(CCN(OC)CC3)N(C)C2=O)c(C)c1` [Compound P1.6], the activity entry in data set [5] is on record as “over 80%”. For the same compound, the pest or weed control at 200 ppm in data set [4] is at least 80%.
Regarding `C#Cc1cc(C)cc(C)c1C1=C(OC(=O)OCC)C2(CCN(OC)CC2)NC1=O` [Compound P1.7], the pest or weed control at 400 ppm in data set [1] and in data set [3] was over 80% in each case. The pest or weed control in data set [2] was over 80%. The pest or weed control at 200 ppm in data set [4] is at least 80%.
For `C#Cc1cc(C)cc(C)c1C1=C(OC(=O)OCC)C2(CCN(OC)CC2)N(C)C1=O` [Compound P1.8], the pest or weed control at 400 ppm in data set [1] and in data set [3] was over 80% throughout. The compound further came in with a pest or weed control in data set [2] of over 80%. The compound further yielded a pest or weed control at 200 ppm in data set [4] of at least 80%.
For `C#Cc1cc(C)cc(C)c1C1=C(OC(=O)OCC)C2(CCN(OC)CC2)N(OC2CCCO2)C1=O` (stereo not shown) [Compound P1.9], the pest or weed control at 400 ppm in data set [1] and in data set [3] was over 80% in each case. This compound also gave a pest or weed control in data set [2] of over 80%. In addition, in data set [4], the pest or weed control at 200 ppm was at least 80%.
`C#Cc1ccc(C)cc1C1=C(OC(=O)OCC)C2(CCN(OC)CC2)NC1=O` [Compound P1.10] had a pest or weed control at 200 ppm in data set [4] of at least 80%.
With `C#Cc1ccc(C)cc1C1=C(OC(=O)OCC)C2(CCN(OC)CC2)N(OC)C1=O` [Compound P1.11], in data set [1], the pest or weed control at 400 ppm was over 80%. This compound showed a pest or weed control in data set [2] of over 80%. Further, in data set [4], the pest or weed control at 200 ppm is at least 80%.
On to `C#Cc1cc(C)c(C2=C(OC(=O)OCC)C3(CCN(OC)CC3)NC2=O)c(C)c1` [Compound P1.12], for which the pest or weed control in data set [2] is over 80%. Besides, the pest or weed control at 400 ppm in data set [3] is over 80%. The pest or weed control at 200 ppm in data set [4] was at least 80%.
The compound `C#Cc1cc(C)c(C2=C(OC(=O)OCC)C3(CCN(OC)CC3)N(C)C2=O)c(C)c1` [Compound P1.13] yielded a pest or weed control in data set [2] of over 80%. Also, the pest or weed control at 400 ppm in data set [3] was over 80%. Also, in data set [4], the pest or weed control at 200 ppm was at least 80%.
In the case of `CC#Cc1cc(C)c(C2=C(OC(=O)OCC)C3(CCN(OC)CC3)N(C)C2=O)c(C)c1` [Compound P1.14], the pest or weed control at 400 ppm in data set [1] and in data set [3] was over 80% throughout. In data set [4], this compound came in with a pest or weed control at 200 ppm of at least 80%.
For the compound `CON1CCC2(CC1)NC(=O)C(c1cc(C(C)=O)ccc1C)C2=O` (stereo not shown) [Compound P2.1], the melting point lay within 218 to 220 °C.
On the same count and under the same terms, next, `COC(=O)c1ccc(C)c(C2C(=O)NC3(CCN(OC)CC3)C2=O)c1` (stereo not shown) [Compound P2.2]: 245 to 247 °C.
On to `C=Cc1cc(C)cc(C)c1C1=C(O)C2(CCN(OC)CC2)NC1=O` [Compound P2.3, 3-(2,4-Dimethyl-6-vinyl-phenyl)-4-hydroxy-8-methoxy-1,8-diaza-spiro[4.5]dec-3-en-2-one], for which the pest or weed control at 400 ppm in data set [1] is over 80%. The compound further registered a pest or weed control in data set [2] of over 80%. In data set [4], the pest or weed control at 200 ppm is at least 80%.
As to `C=Cc1cc(C)cc(C)c1C1=C(O)C2(CCN(OC)CC2)N(C)C1=O` [Compound P2.4, 3-(2,4-Dimethyl-6-vinyl-phenyl)-4-hydroxy-8-methoxy-1-methyl-1,8-diaza-spiro[4.5]dec-3-en-2-one], the pest or weed control at 200 ppm in data set [4] is at least 80%.
On the same count and under the same terms, next, `C=Cc1cc(C)cc(C)c1C1=C(O)C2(CCN(OC)CC2)N(OC2CCCO2)C1=O` (stereo not shown) [Compound P2.5, 3-(2,4-Dimethyl-6-vinyl-phenyl)-4-hydroxy-8-methoxy-1-(tetrahydro-furan-2-yloxy)-1,8-diaza-spiro[4.5]dec-3-en-2-one]: at least 80%.
`C#Cc1cc(C)cc(C)c1C1C(=O)NC2(CCN(OC)CC2)C1=O` (stereo not shown) [Compound P2.6]: the pest or weed control at 400 ppm in data set [1] and in data set [3] was over 80% each time. Further, in data set [2], the pest or weed control is over 80%. For the same compound, in data set [4], the pest or weed control at 200 ppm is at least 80%.
In data set [1], `C#Cc1cc(C)cc(C)c1C1C(=O)N(C)C2(CCN(OC)CC2)C1=O` (stereo not shown) [Compound P2.7] registered a pest or weed control at 400 ppm of over 80%. In data set [2], this compound displayed a pest or weed control of over 80%. The pest or weed control at 200 ppm in data set [4] is at least 80%.
Regarding `C#Cc1cc(C)cc(C)c1C1C(=O)N(OC2CCCO2)C2(CCN(OC)CC2)C1=O` (stereo not shown) [Compound P2.8], the pest or weed control at 400 ppm in data set [1] and in data set [3] was over 80% throughout. In data set [2], the pest or weed control was over 80%. For the same compound, the pest or weed control at 200 ppm in data set [4] is at least 80%.
As to `C#Cc1ccc(C)cc1C1C(=O)N(OC)C2(CCN(OC)CC2)C1=O` (stereo not shown) [Compound P2.10], the pest or weed control at 200 ppm in data set [4] was at least 80%.
As to `C#Cc1cc(C)c(C2C(=O)NC3(CCN(OC)CC3)C2=O)c(C)c1` (stereo not shown) [Compound P2.11], the pest or weed control in data set [2] is over 80%. In data set [3], the pest or weed control at 400 ppm was over 80%. In addition, the pest or weed control at 200 ppm in data set [4] was at least 80%.
Regarding `C#Cc1cc(C)c(C2=C(O)C3(CCN(OC)CC3)N(C)C2=O)c(C)c1` [Compound P2.12, 3-(4-Ethynyl-2,6-dimethyl-phenyl)-4-hydroxy-8-methoxy-1-methyl-1,8-diaza-spiro[4.5]dec-3-en-2-one], in data set [2], the pest or weed control is over 80%. In data set [3], this compound registered a pest or weed control at 400 ppm of over 80%. For the same compound, the pest or weed control at 200 ppm in data set [4] was at least 80%.
In turn, `CC#Cc1cc(C)c(C2=C(O)C3(CCN(OC)CC3)N(C)C2=O)c(C)c1` [Compound P2.13, 3-(2,6-Dimethyl-4-prop-1-ynyl-phenyl)-4-hydroxy-8-methoxy-1-methyl-1,8-diaza-spiro[4.5]dec-3-en-2-one] returned a pest or weed control at 200 ppm in data set [4] of at least 80%.

Broadly, the melting point is the temperature, or range, at which the solid turns liquid. Broadly, the pest or weed control is the degree to which the test organism was suppressed or injured, in per cent.
